Results reported in patent US8026359B2, “Fungicidal heterocyclic amines” (E.I. du Pont de Nemours and Company, priority 2007, dated 2011).

Legend:
Assay type in all cases: in vivo
Septoria nodorum = experiment: Test C: wheat glume blotch, preventive spray on wheat seedlings; details: 200 ppm, 100 = 100% disease control, 0 = no control relative to controls; for pest or weed control at 200 ppm: Parastagonospora nodorum, 216 h, read-out: Test C disease control rating
Source text: (§1) General protocol for preparing test suspensions for Tests A-R: The test compounds were first dissolved in acetone in an amount equal to 3% of the final volume and then suspended at the desired concentration (in ppm) in acetone and purified water (50/50 mix) containing 250 ppm of the surfactant Trem® 014 (polyhydric alcohol esters). The resulting test suspensions were then used in tests A-R. In Tests A-M, compounds were sprayed as a 200 ppm test suspension (equivalent to a rate of 500 g/ha) or as a 40 ppm test suspension to the point of runoff on the test plants. In Tests N-R, compounds were sprayed as a 100 g/ha test suspension (equivalent to a rate of 100 ppm) on the test plants at an application volume of 1000 L/ha. The test suspension was sprayed to the point of run-off on wheat seedlings.

Septoria tritici = experiment: Test D: wheat leaf blotch, preventive spray on wheat seedlings; details: 200 ppm, 100 = 100% disease control, 0 = no control relative to controls; for pest or weed control at 200 ppm: Zymoseptoria tritici, 504 h, read-out: Test D disease control rating
Source text: as §1

Fusarium graminearum = experiment: whole plant or invertebrate; details: for Test E disease control rating: 200 ppm, 100 = 100% disease control, 0 = no control relative to controls; for pest or weed control at 200 ppm: Fusarium graminearum, in Triticum aestivum, 192 h, read-out: Test E disease control rating
[1] = system: Puccinia recondita f. sp. tritici; experiment: Test B: wheat leaf rust, preventive spray on wheat seedlings; details: 200 ppm, 100 = 100% disease control, 0 = no control relative to controls; for pest or weed control at 200 ppm: Puccinia recondita, 192 h, read-out: Test B disease control rating
Source text: as §1

[2] = system: Erysiphe graminis f. sp. tritici; experiment: Test A: wheat powdery mildew, preventive spray on wheat seedlings; details: 200 ppm, 100 = 100% disease control, 0 = no control relative to controls; for pest or weed control at 200 ppm: Blumeria graminis, 192 h, read-out: Test A disease control rating
Source text: as §1

Botrytis cinerea = experiment: Test F: tomato Botrytis, preventive spray on tomato seedlings; details: 200 ppm, 100 = 100% disease control, 0 = no control relative to controls; for pest or weed control at 200 ppm: Botrytis cinerea, 120 h, read-out: Test F disease control rating
Source text: as §1, with “tomato” for “wheat”

[3] = system: Colletotrichum orbiculare; experiment: Test I: cucumber Colletotrichum anthracnose, preventive spray on cucumber seedlings; details: 100 = 100% disease control, 0 = no control relative to controls; for pest or weed control at 200 ppm: Colletotrichum orbiculare, 144 h, read-out: Test I disease control rating; for Test I disease control rating: 200 ppm
Source text: as §1, with “cucumber” for “wheat”

Structure (SMILES)	Test C disease control rating (Septoria nodorum) [%]	Test D disease control rating (Septoria tritici) [%]	Test E disease control rating (Fusarium graminearum) [%]	Test B disease control rating [1] [%]	Test A disease control rating [2] [%]	Test F disease control rating (Botrytis cinerea) [%]	pest or weed control at 200 ppm [3] [%]	pest or weed control at 200 ppm (Septoria nodorum) [%]	pest or weed control at 200 ppm (Septoria tritici) [%]	pest or weed control at 200 ppm (Fusarium graminearum) [%]	pest or weed control at 200 ppm [1] [%]	pest or weed control at 200 ppm [2] [%]	pest or weed control at 200 ppm (Botrytis cinerea) [%]	Test I disease control rating [3] [%]
COC[C@H](C)Nc1nccc(-c2ncnc(Nc3cncc(F)c3)n2)n1 [Compound 35]	98	7	98	100	72	91	–	–	–	–	–	–	–	–
COCC(C)Nc1nccc(-c2cc(Nc3cccc(F)c3)ncn2)n1 (stereo not shown) [Compound 109, N^6′-(3-fluorophenyl)-N^2-(2-methoxy-1-methylethyl) [4,4′-bipyrimidine]-2,6′-diamine]	–	–	–	–	–	–	9	94	5	0	96	0	0	–
Fc1cccc(Nc2cc(-c3ccnc(NCC4CCOC4)n3)ccn2)c1 (stereo not shown) [Compound 82, 4-[2-[(3-fluorophenyl)amino]-4-pyridinyl]-N-[(tetrahydro-3-furanyl)methyl]-2-pyrimidinamine]	–	–	–	–	–	–	29	91	68	0	98	0	0	–
CCCC(C)Nc1nccc(-c2ccnc(Nc3cccc(F)c3)c2)n1 (stereo not shown) [Compound 59]	99	0	0	–	87	57	–	–	–	–	–	–	–	0
CCNNc1nccc(-c2ccnc(Nc3cccc(F)c3)c2)n1 [Compound 66]	99	92	64	85	0	84	–	–	–	–	–	–	–	–
COCC(C)Nc1nccc(-c2ccnc(Nc3ccc(C#N)cc3)c2)n1 (stereo not shown) [Compound 63]	0	41	0	80	0	0	–	–	–	–	–	–	–	90
COCC(C)Nc1nccc(-c2ccnc(Nc3c(F)cccc3Cl)c2)n1 (stereo not shown) [Compound 79]	99	5	0	99	0	94	–	–	–	–	–	–	–	96
Fc1cccc(Nc2cc(-c3ccnc(NC4CCCC4)n3)ccn2)c1 [Compound 62, N-cyclopentyl-4-[2-[(3-fluorophenyl)amino]-4-pyridinyl]-2-pyrimidinamine]	–	–	–	–	–	–	0	0	14	0	94	0	0	–
CC(C)Nc1nccc(-c2ccnc(Nc3cccc(F)c3)c2)n1 [Compound 60]	100	18	0	95	97	61	–	–	–	–	–	–	–	0
Clc1cccc(Nc2ncnc(-c3ccnc(NC4CCOCC4)n3)n2)c1 [Compound 4, N-(3-chlorophenyl)-4-[2-[(tetrahydro-2H-pyran-4-yl)amino]-4-pyrimidinyl]-1,3,5-triazin-2-amine]	–	–	–	–	–	–	66	99	11	0	91	0	0	–
COCC(C)Nc1nccc(-c2ccnc(Nc3ccccc3F)c2)n1 (stereo not shown) [Compound 53]	96	41	0	98	88	99	–	–	–	–	–	–	–	26
COCC(C)Nc1nccc(-c2ccnc(Nc3c(C)cc(Cl)cc3Cl)c2)n1 (stereo not shown) [Compound 93]	100	78	66	99	84	98	–	–	–	–	–	–	–	0
COc1cccc(C)c1Nc1cc(-c2ccnc(NC3CCOCC3)n2)ccn1 [Compound 88]	97	0	91	100	99	0	–	–	–	–	–	–	–	0
Fc1cccc(Nc2cc(-c3ccnc(NC4CCCOC4)n3)ccn2)c1 (stereo not shown) [Compound 75]	89	28	0	83	0	90	–	–	–	–	–	–	–	9
COCC(C)Nc1nccc(-c2ccnc(Nc3c(F)ccc(F)c3F)c2)n1 (stereo not shown) [Compound 70]	99	17	84	98	95	97	–	–	–	–	–	–	–	98
Clc1cccc(Nc2cc(-c3ccnc(NC4CCOCC4)n3)ccn2)c1 [Compound 69, 4-[2-[(3-chlorophenyl)amino]-4-pyridinyl]-N-(tetrahydro-2H-pyran-4-yl)-2-pyrimidinamine]	–	–	–	–	–	–	0	97	77	0	94	91	85	–
COCC(C)Nc1nccc(-c2ccnc(Nc3c(C)cccc3C)c2)n1 (stereo not shown) [Compound 77]	99	61	92	99	95	88	–	–	–	–	–	–	–	96
COCC(C)Nc1nccc(-c2ccnc(Nc3c(C)ccc(Cl)c3C)c2)n1 (stereo not shown) [Compound 92]	100	65	0	94	91	99	–	–	–	–	–	–	–	0
COCC(C)Nc1nccc(-c2ccnc(Nc3cc(F)ccc3C)c2)n1 (stereo not shown) [Compound 91]	94	7	19	99	97	98	–	–	–	–	–	–	–	0
COC[C@@H](C)Nc1nccc(-c2ccnc(Nc3cccc(F)c3)c2)n1 [Compound 68]	99	96	0	95	0	93	–	–	–	–	–	–	–	–
